One may read the Ki as a dissociation constant, usually derived from enzyme kinetics or from competition with a known ligand. The Kb is the equilibrium dissociation constant of an antagonist, usually derived from a functional assay. Lower therefore signals higher antagonist affinity. As usually defined, the melting point is the temperature of the solid-liquid transition.

Like-named read-outs stand apart in the source and are kept apart here.

This is an account of results in patent publication US7273880B2, “Selective NPY (Y5) antagonists” (H. Lunbeck A/S, priority 1999, dated 2007).

The target in data set [1] is T1, human Y5 receptor (hNPY-5) (Homo sapiens, UniProt Q15761).
T1 construct: expressed in transfected cells; host or cells: mouse fibroblast LM(tk-) cells, e.g. L-hY5-7 (ATCC CRL-11995)
T1 sequence (Q15761 1-445): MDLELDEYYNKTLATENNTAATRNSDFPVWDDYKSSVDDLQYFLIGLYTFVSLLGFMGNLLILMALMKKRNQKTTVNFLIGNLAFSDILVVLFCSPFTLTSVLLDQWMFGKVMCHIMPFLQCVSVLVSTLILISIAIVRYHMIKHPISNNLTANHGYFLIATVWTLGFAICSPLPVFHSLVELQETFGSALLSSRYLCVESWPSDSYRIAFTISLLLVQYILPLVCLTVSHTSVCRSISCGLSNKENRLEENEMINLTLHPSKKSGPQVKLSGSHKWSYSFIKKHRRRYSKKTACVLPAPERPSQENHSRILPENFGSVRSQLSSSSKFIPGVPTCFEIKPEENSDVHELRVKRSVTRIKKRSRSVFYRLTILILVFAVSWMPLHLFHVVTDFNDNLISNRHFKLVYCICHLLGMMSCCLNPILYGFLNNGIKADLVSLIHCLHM
In words: Radioligand binding to membranes, cloned human Y5 receptor. The method in brief: (§1)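 Competition binding on membranes from stably transfected 293 or LM(tk-) cells, with 0.08 nM ¹²⁵I-PYY in pH 7.4 HEPES buffer plus 0.1% BSA, 120 min at 30 °C, filtration and counting. Nonspecific binding defined by 300 nM human NPY, or 100 nM human PP for Y4; nonlinear regression.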

The target in data set [2] is hNPY-1,2,4 (human Y1, Y2, Y4 receptors). In words: Radioligand binding to membranes, cloned human Y1, Y2 and Y4 receptors. Particulars: one bound given for all three. Summed up: as §1
Data set [3] concerns the target T2, human Y5 receptor (h NPY-5) (Homo sapiens, UniProt Q15761).
T2 construct: expressed in transfected cells; host or cells: mouse fibroblast LM(tk-) cells, e.g. L-hY5-7 (ATCC CRL-11995)
T2 sequence (Q15761 1-445): T1 sequence (Q15761 1-445)
In words: Functional assay: radioimmunoassay of cAMP. It is filed as cell-based. Particulars: functional antagonism, forskolin-stimulated cAMP, cells stably transfected with human Y5. As for the experimental part: LM(tk-) cells stably transfected with the human Y5 receptor were routinely converted from an adherent monolayer to a viable suspension. Adherent cells were harvested with trypsin at the point of confluence, resuspended in a minimal volume of complete DMEM for a cell count, and further diluted to a concentration of 10^6 cells/ml in suspension media (10% bovine calf serum, 10% 10× Medium 199 (Gibco), 9 mM NaHCO3, 25 mM glucose, 2 mM L-glutamine, 100 units/ml penicillin/100 μg/ml streptomycin, and 0.05% methyl cellulose). The cell suspension was maintained in a shaking incubator at 37° C., 5% CO2 for 24 hours. Membranes harvested from cells grown in this manner may be stored as large, uniform batches in liquid nitrogen. Alternatively, cells may be returned to adherent cell culture in complete DMEM by distribution into 96-well microtiter plates coated with poly-D-lysine (0.01 mg/ml) followed by incubation at 37° C., 5% CO2 for 24 hours. Cells prepared in this manner yielded a robust and reliable NPY-dependent response in cAMP radio-immunoassays as further described hereinbelow.
Stably transfected cells were seeded into 96-well microtiter plates and cultured until confluent. To reduce the potential for receptor desensitization, the serum component of the media was reduced to 1.5% for 4 to 16 hours before the assay. Cells were washed in Hank's buffered saline, or HBS (150 mM NaCl, 20 mM HEPES, 1 mM CaCl2, 5 mM KCl, 1 mM MgCl2, and 10 mM glucose) supplemented with 0.1% bovine serum albumin plus 5 mM theophylline and pre-equilibrated in the same solution for 20 min at 37° C. in 5% CO2. Cells were then incubated 5 min with 10 μM forskolin and various concentrations of receptor-selective ligands. The assay was terminated by the removal of HBS and acidification of the cells with 100 mM HCl. Intracellular cAMP was extracted and quantified with a modified version of a magnetic bead-based radioimmunoassay (Advanced Magnetics, Cambridge, Mass.). The final antigen/antibody complex was separated from free ^125I-cAMP by vacuum filtration through a PVDF filter in a microtiter plate (Millipore, Bedford, Mass.). Filters were punched and counted for ^125I in a Packard gamma counter. Binding data were analyzed using nonlinear regression and statistical techniques available in the GraphPAD Prism package (San Diego, Calif.).

The next data set concerns satiated rats. Particulars: direct injection into the hypothalamus, 4-hour period; cited from earlier work.
Where [4] appears, read: binding Ki as repeated in Table 4, read-out: Ki (h NPY-5).
Where [5] appears, read: cloned human NPY Y5 receptor, radioligand competition binding, Tables 1-3, read-out: Ki, nM hNPY-5.

The molecule `CN(C)S(=O)(=O)NC[C@H]1CC[C@H](Nc2nc3c(s2)CCCc2ccc(F)cc2-3)CC1` [Example 1, trans-N2-(4-Dimethylaminosulfonylaminomethyl)-cyclohexyl-9-fluoro-5,6-dihydro-4H-benzo[6,7]-cyclohepta[d][1,3]-thiazol-2-amine] returned a melting point of 60 to 65 °C. Besides, in data set [1] (setting [4]), the inhibitory constant (Ki) came out at 2.1 nM. Moreover, the Ki in data set [1] (setting [5]) came to 2.1 nM. The molecule further showed a Ki in data set [2] of more than 10000 nM. Besides, the antagonist equilibrium constant (Kb) in data set [3] is 12.6 nM.
In the case of “NPY: peptide neurotransmitter neuropeptide Y, a 36 amino acid member of the pancreatic polypeptide family”, the “increase of food intake” value in the data set on satiated rats was “up to 10 fold”.
In the case of `NS(=O)(=O)N[C@H]1CC[C@H](CNc2nc3c(s2)CCCc2ccc(F)cc2-3)CC1` [Example 44, trans-N2-(4-Aminosulfonylamino)cyclohexylmethyl-9-fluoro-5,6-dihydro-4H-benzo[6,7]cyclohepta[d][1,3]-thiazol-2-amine], the melting point was in the range of 180 to 182 °C. The Ki in data set [1] (setting [4]) was determined as 2.3 nM. Besides, in data set [1] (setting [5]), the Ki was 2.3 nM. The molecule also displayed a Ki in data set [2] of more than 10000 nM. The same molecule showed an antagonist equilibrium constant (Kb) in data set [3] of 1.58 nM.
With `O=S(=O)(CC(F)(F)F)NCCCCCNc1nc2c(s1)CCCc1ccc(F)cc1-2` [Example 20, 1-Aza-9-fluoro-2-(5-(2-trifluoroethyl)sulfonylamino)-pentylamino-4,5-dihydro-3-thia-benzo [e]azulene], the inhibitory constant (Ki) in data set [1] (setting [4]) is 0.3 nM; in data set [1] (setting [5]), 5.8 nM; in data set [2], more than 10000 nM. The molecule further had a Kb in data set [3] of 5.01 nM.
The corresponding values for `CS(=O)(=O)N[C@H]1CC[C@H](CNc2nc3c(s2)CCCc2ccc(F)cc2-3)CC1` [Example 43, trans-N2-(4-Methylsulfonylamino)cyclohexylmethyl-9-fluoro-5,6-dihydro-4H-benzo[6,7]cyclohepta[d][1,3]-thiazol-2-amine] are 4.4 nM, 4.4 nM, more than 10000 nM and 15.8 nM.
